Results on two compounds are retold here after US20250129083A1, “IMIDAZOTETRAZINE COMPOUNDS AND TREATMENT OF TMZ-RESISTANT CANCERS” (THE BOARD OF TRUSTEES OF THE UNIVERSITY OF ILLINOIS, priority 2022, published 2025).

One series has as its system HCT116 cells. In words: Cell viability assay (Alamar Blue, 7 days), HCT116. In kind it is cell-based. Particulars: Homo sapiens, HCT-116, 168 h. The procedure: (§1) Cell Culture and Reagents. All cell lines were grown in a 37° C., 5% CO2, humidified environment, in media containing 1% penicillin/streptomycin. Stable cell line generation of GL261 MGMT+ was purchased from Creative Biogene. Cell culture conditions are as follows: cell lines U87, T98G, and RKO were grown in EMEM with 10% FBS. D54, GL261, GL261 MGMT+, and U118MG cell lines were grown in DMEM with 10% FBS. HCT116 cells were grown in RMPI with 10% FBS. D341 Med cells were grown in EMEM with 20% FBS. Temozolomide (TMZ) was purchased from AK Scientific. TMZ analogues were synthesized as described below. Compounds were dissolved in DMSO (1% final concentration, Fisher Chemical) for cell culture studies.
(§2) Cell Viability Assays. Cells were harvested, seeded in a 96-well plate and allowed to adhere. After three hours, compound was added to each well in DMSO (1% final concentration). Cells were incubated for seven days (unless otherwise noted) before viability was assessed by the Alamar Blue assay. Raptinal (20 μM) was used as a dead control.
(Resazurin is reduced to fluorescent resorufin, in cell work by metabolically active cells.)

For series [1], the system named is D341 Med medulloblastoma cell line. Kind of series: Cell viability assay (Alamar Blue, 7 days), D341 Med. In kind it is cell-based. The note with it: Homo sapiens, 168 h, MGMT (+)/MMR (−), 7 day. How it is done: as §1, §2
For series [2], the system named is expanded panel of GBM cell lines with or without MGMT expression. Kind of series: Cell viability in expanded panel of GBM cell lines. In kind it is cell-based. Particulars: for IC50: 168 h, 7 day. The procedure:
FIG. 1A-C. Selection and evaluation of MGMT-independent imidazotetrazines. (A) IC50 values (M, 7 days) of TMZ and compound 10 in an expanded panel of GBM cell lines. Cell viability was assessed via the Alamar Blue assay, n≥3, error is SEM. (B) Hydrolytic stability of TMZ at pH 7, 7.4, and 8. Percentage of prodrug remaining was quantified by HPLC, n≥2. (C) Hydrolytic stability of compound 10 at pH 7, 7.4, and 8. Percentage of prodrug remaining was quantified by HPLC, n≥2.
FIG. 2A-F. (A) 7 day IC50 values (M) of compound 10 and CPZ in an expanded panel of GBM cell lines. Cell viability was assessed via the Alamar Blue assay, n≥3, error is SEM. (B-E) 7 day dose-response curves of TMZ and CPZ in cell lines with variable MGMT and MMR status. Error is SEM, n≥3. (F) Killing kinetics of CPZ compared to TMZ in the U87 cell line. Cells were treated with compound once and viability was assessed every 24 hours via Alamar Blue assay. Error is SEM, n≥2.
as §2

Another series relates to U118MG cells. In words: Cell viability assay (Alamar Blue, 7 days), U118MG. In kind it is cell-based. The note with it: Homo sapiens, U-118-MG, 168 h, MGMT (+) MMR (+), 600 c/w, SEM, n=3. How it is done:
as §1, §2
(§3) Plated 1500 c/w for GL261; 600 c/w for U87; 600 c/w for U118MG; 1500 c/w for GL261 MGMT+ Incubated ovn and added 1 μL of compound in DMSO the next day. Incubated over 7 days; added Alamar Blue to assess cell viability and used 10 μM Raptinal as dead control. Error is SEM, n=3.

Series [3] can be described thus: Hydrolytic stability studies. In kind it is physicochemical. Particulars: PBS; for Hydrolytic stability: percentage of prodrug remaining after 2 hours: pH 7.4, 37° C., HPLC; for half-life at 100 μM: 37° C. How it is done: Hydrolytic Stability Studies. Compound (100 μM) was incubated at 37° C. in PBS at pH 7.4 (unless otherwise noted). At the indicated time point, an aliquot was collected and analyzed by HPLC. Compound peaks were integrated and compared to the integration at to calculate the percentage of prodrug remaining.

The next series can be described thus: in vivo. Particulars: CD-1 IGS, mouse, brain and serum, iv, 25 mg/kg.
Series [4] can be described thus: Solubility in IV formulations. In kind it is physicochemical. Particulars: for Solubility in 20/80 DMSO/PBS / Solubility in 15/7/5/73 DMSO/NMP/T20/20% SPE-βCD / Solubility in 15/10/75 DMSO/NMP/20% SPE-βCD: IV formulation; for Solubility in 20/80 DMSO/PBS: 5 mg/mL solution for 100 μL injection; for Solubility in 15/7/5/73 DMSO/NMP/T20/20% SPE-βCD / Solubility in 15/10/75 DMSO/NMP/20% SPE-βCD: 6.6 mg/mL solution for 200 μL injection.

A further series relates to T98G cells. Kind of series: Cytotoxicity after pretreatment with MGMT inhibitor O6BG. In kind it is cell-based, human. Particulars: T98G pretreated (3 hours) with O6BG vs non-pretreated. How it is done: FIG. 3A-E. Investigation of the mechanism of action and efficacy of CPZ in MGMT+ cell lines. (A) Detection of O^6-methyl-2′-deoxyguanosine or O^6-propargyl-2′-deoxyguanosine in GL261 cells after treatment with TMZ or CPZ, respectively. GL261 cells were treated with the indicated concentration of compound for 8 hours before they were harvested and genomic DNA was extracted. DNA (10 μg) was hydrolyzed and submitted to LC-MS/MS for quantitation. Both O^6-Me-dG and O^6-proparyl-dG were below the limit of detection in the DMSO control. Error is SEM, n≥3. Cytotoxicity of TMZ (B) or CPZ (C) in T98G cells pretreated (3 hours) with MGMT inhibitor O6BG. Error is SEM, n≥3. (D) 7 day dose-response curves of TMZ and CPZ in GL261 cells. Error is SEM, n≥3. (E) 7 day dose-response curves of TMZ and CPZ in GL261 MGMT+ cells. Error is SEM, n≥3.
To further explore the ability of CPZ to evade MGMT-mediated resistance, MGMT-expressing T98G cells were pretreated with MGMT inhibitor O6BG followed by treatment with TMZ or CPZ. […] This cell death potentiation by TMZ upon treatment with an MGMT inhibitor was also observed in MGMT-expressing cell lines U118MG and RKO, whereas the efficacy of CPZ was again unaffected. […]

In another series the test system is GL261 MGMT+ cells. Kind of series: Cell viability assay (Alamar Blue, 7 days), GL261 MGMT+. Particulars: Mus musculus, GL261, 168 h. In kind it is cell-based. The procedure: To further explore the ability of CPZ to evade MGMT-mediated resistance, MGMT-expressing T98G cells were pretreated with MGMT inhibitor O6BG followed by treatment with TMZ or CPZ. […] This cell death potentiation by TMZ upon treatment with an MGMT inhibitor was also observed in MGMT-expressing cell lines U118MG and RKO, whereas the efficacy of CPZ was again unaffected. For MGMT (−)/MMR (−) HCT116 cells, negligible potentiation of TMZ cytotoxicity was observed upon pretreatment with O6BG, confirming that loss of MMR capacity, not MGMT expression, was responsible for resistance to TMZ in HCT116 cells. Additionally, human MGMT was knocked into the MGMT-negative mouse glioma cell line, GL261, establishing the novel cell line GL261 MGMT+.
as §1, §2, §3

The next series concerns U87 GBM cell line. In words: Cell viability assay (Alamar Blue, 7 days), U87. In kind it is cell-based, human. Particulars: Homo sapiens, 168 h. The procedure:
as §1, §2, §3

The mark [5] stands for this setting: MGMT (−) MMR (−), 7 days, read-out: Activity, HCT116.
Where [6] appears, read: MGMT (−)/MMR (−), 7 day, read-out: IC50, HCT116.
The mark [7] stands for this setting: pH 7.4, calculated from hydrolytic stability data, read-out: Half-life, pH 7.4.
[8] abbreviates: 7 day dose-response, human MGMT knock-in, read-out: IC50, GL261 MGMT+.
[9] abbreviates: MGMT (+) MMR (+), 7 days, 1500 c/w, SEM, n=3, read-out: Activity, GL261 MGMT+.
Setting [10] is: MGMT (−) MMR (+), 600 c/w, SEM, n=3, read-out: Activity, U87.

Molecules are shown by their SMILES. Like-named read-outs stand apart in the source and are kept apart here.

Description for in vivo: Biodistribution and Toxicity Studies. […] Brain tissue and blood were collected from each mouse and immediately acidified to prevent prodrug degradation. The concentration of each compound in the serum (FIG. 4A) and brain (FIG. 4B) were quantified by LC-MS/MS.
CD-1 IGS mice were administered compound in 5% DMSO, 10% Tween-20, and 85% SPE-PCD in sterile water (30% w/v) at 25 mg/kg via lateral tail vein injection. Fifteen minutes post injection, mice were sacrificed and blood was collected by lacerating the right auricle with iris scissors. An 18 gauge angiocatheter was inserted through the left ventricle, and all residual circulatory volume was removed by perfusing 0.9% saline solution via an analog peristaltic pump. Blood samples were immediately centrifuged at 13,000 rcf for five minutes and the supernatant collected and acidified with 8.5% aqueous H3PO4. Brains were harvested from the cranial vault, acidified with 0.3% aqueous H3PO4 and flash frozen. Homogenized brain samples were centrifuged twice at 13,000 rcf for ten minutes and supernatant and tissue debris were separated. The resultant supernatant was analyzed, along with plasma, by LC-MS/MS to determine compound concentrations.

As usually defined, the half-life is the time needed for the level to fall by half in the phase considered. As a reminder, the Kp is the ratio of the level in a tissue or fluid to that in plasma or blood. As for `C#CCn1nnc2c(Cl)ncn2c1=O` [CPZ, 8-chloro-3-(prop-2-yn-1-yl)imidazo[5,1-d][1,2,3,5]tetrazin-4(3H)-one], the IC50 in the series on HCT116 cells (setting [5]) was determined as 14 ± 16 µM; with HCT116 cells (setting [6]), 14 µM; in series [1], 8 µM; in [2] (read-out: Average IC50 in MGMT (+) cell lines), 22 µM; in [2] (read-out: Average IC50 in MGMT (−) cell lines), 16 µM; with U118MG cells, 17 ± 1 µM. The IC50 with GL261 MGMT+ cells (setting [8]) is 29 µM; with GL261 MGMT+ cells (setting [9]), 29 ± 5 µM; with U87 GBM cell line (setting [10]), 16 ± 6 µM. Also, the “Hydrolytic stability: percentage of prodrug remaining after 2 hours” value in series [3] is 30%. The half-life at 100 μM in series [3] (setting [7]) is 1.2 h. Also, the Kp at 15 min in “in vivo” came to 1.2 ± 0.2. The “Solubility for IV administration” value in series [4] is “insufficient solubility for IV administration”. In series [4], the “Solubility in 20/80 DMSO/PBS” value is “Insoluble”. The “Solubility in 15/7/5/73 DMSO/NMP/T20/20% SPE-βCD” value in series [4] is “Insoluble”. In [4], the “Solubility in 15/10/75 DMSO/NMP/20% SPE-βCD” value is “Insoluble”. The “Potentiation of cell death by O6BG pretreatment” value with T98G cells is “No such enhancement in activity”.
As for `Cn1nnc2c(C(N)=O)ncn2c1=O` [TMZ, temozolomide, reference compound], the IC50 in the series on HCT116 cells (setting [5]) is 840 ± 30 µM; with HCT116 cells (setting [6]) it was greater than 800 µM; in series [1], 460 µM; with U118MG cells, 322 ± 7 µM; in the series on GL261 MGMT+ cells (setting [8]), greater than 1000 µM; in the series on GL261 MGMT+ cells (setting [9]), greater than 1000 µM. The IC50 in the series on U87 GBM cell line (setting [10]) was 51 ± 8 µM; in the series on U87 GBM cell line (MGMT (−), Alamar Blue, error SEM, n ≥ 3, read-out: Seven-day IC50, U87), roughly 50 µM. Moreover, in [2] (expanded GBM panel), the “Difference in IC50 values between MGMT-negative and positive cell lines” value is on record as greater than 6 fold. Besides, the half-life at 100 μM was 2.97 ± 0.0833 h in series [3] (pH 7, calculated from hydrolytic stability data, read-out: Half-life, pH 7); roughly 1.5 h in series [3] (setting [7]); 0.483 ± 0.0167 h in series [3] (pH 8, calculated from hydrolytic stability data, read-out: Half-life, pH 8). Besides, in [3], the “Hydrolytic stability: percentage of prodrug remaining after 2 hours” value came to 40%. Further, the Kp at 15 min in the series “in vivo” worked out at 0.08 ± 0.01. For the same compound, the “Solubility in 20/80 DMSO/PBS” value in [4] is reported as “Soluble*”. In addition, in [4], the “Solubility in 15/7/5/73 DMSO/NMP/T20/20% SPE-βCD” value is on record as “Soluble”. For the same compound, the “Solubility in 15/10/75 DMSO/NMP/20% SPE-βCD” value in series [4] was “Soluble”. In the series on T98G cells, the “Potentiation of cell death by O6BG pretreatment” value is “dramatic potentiation of cell death”.
